Reference: ChEMBL document CHEMBL5506008, “Synthesis and biological evaluation of 1-phenyl-tetrahydro-β-carboline-based first dual PRMT5/EGFR inhibitors as potential anticancer agents” (Eur J Med Chem, 2024)

Key:
A549 = experiment: Antiproliferative activity against human A549 cells assessed as inhibition of cell growth by CCK-8 assay
[1] = target: Protein arginine N-methyltransferase 1 (Homo sapiens, UniProt Q99873); experiment: Inhibition of PRMT1 (unknown origin) using [3H]SAM as substrate preincubated for 15 mins followed by substrate addition and measured after 60 mins by microbeta scintillation counting analysis
[2] = target: Epidermal growth factor receptor (Homo sapiens, UniProt P00533); experiment: Inhibition of wild type GST-tagged EGFR catalytic domain (unknown origin) expressed in insect cells using poly(Glu-Tyr) as substrate incubated for 6 mins by ELISA; set-up: species or system Insect cell
[3] = target: Protein arginine N-methyltransferase 5 (Homo sapiens, UniProt O14744); experiment: Inhibition of PRMT5 (unknown origin) by radiometric-based scintillation proximity assay
MCF7 = experiment: Antiproliferative activity against human MCF7 cells assessed as inhibition of cell growth by CCK-8 assay
[4] = Metabolic stability in rat liver microsomes assessed as compound remaining at […] measured after 30 mins in presence of NADPH by LC-MS/MS analysis; type: ADME, Microsome; settings: read-out: Stability
HepG2 = experiment: Antiproliferative activity against human HepG2 cells assessed as inhibition of cell growth by CCK-8 assay
[5] = Metabolic stability in human liver microsomes assessed as compound remaining at […] measured after 30 mins in presence of NADPH by LC-MS/MS analysis; type: ADME, Microsome; settings: read-out: Stability
HeLa = experiment: Antiproliferative activity against human HeLa cells assessed as inhibition of cell growth by CCK-8 assay
[6] = target: T1, Histone-arginine methyltransferase CARM1 (Homo sapiens, UniProt Q86X55); experiment: Inhibition of PRMT4 (unknown origin) preincubated for 15 mins followed by substrate addition and measured after 60 mins by AlphaLISA assay
T1 sequence (Q86X55 whole entry): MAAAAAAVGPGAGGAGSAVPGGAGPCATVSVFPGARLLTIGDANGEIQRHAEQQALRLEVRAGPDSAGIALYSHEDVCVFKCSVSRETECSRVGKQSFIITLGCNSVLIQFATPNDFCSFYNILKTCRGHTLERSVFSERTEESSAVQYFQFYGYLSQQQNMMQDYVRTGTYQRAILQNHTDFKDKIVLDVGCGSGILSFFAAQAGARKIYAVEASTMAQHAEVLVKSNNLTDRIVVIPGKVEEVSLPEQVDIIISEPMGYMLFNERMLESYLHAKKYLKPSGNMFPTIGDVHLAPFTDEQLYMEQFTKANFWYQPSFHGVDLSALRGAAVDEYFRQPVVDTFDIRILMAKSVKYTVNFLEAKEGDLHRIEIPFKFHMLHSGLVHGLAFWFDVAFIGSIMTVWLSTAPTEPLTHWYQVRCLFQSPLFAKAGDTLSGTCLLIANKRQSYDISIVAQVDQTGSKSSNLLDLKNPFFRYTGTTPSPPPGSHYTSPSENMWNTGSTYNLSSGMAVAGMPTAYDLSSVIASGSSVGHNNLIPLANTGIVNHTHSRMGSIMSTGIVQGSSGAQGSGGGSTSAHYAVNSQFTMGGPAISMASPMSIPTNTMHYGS

MDA-MB-231 = experiment: Antiproliferative activity against human MDA-MB-231 cells assessed as inhibition of cell growth by CCK-8 assay

Sequence of Protein arginine N-methyltransferase 1 (Q99873 whole entry, the tested form may be a part): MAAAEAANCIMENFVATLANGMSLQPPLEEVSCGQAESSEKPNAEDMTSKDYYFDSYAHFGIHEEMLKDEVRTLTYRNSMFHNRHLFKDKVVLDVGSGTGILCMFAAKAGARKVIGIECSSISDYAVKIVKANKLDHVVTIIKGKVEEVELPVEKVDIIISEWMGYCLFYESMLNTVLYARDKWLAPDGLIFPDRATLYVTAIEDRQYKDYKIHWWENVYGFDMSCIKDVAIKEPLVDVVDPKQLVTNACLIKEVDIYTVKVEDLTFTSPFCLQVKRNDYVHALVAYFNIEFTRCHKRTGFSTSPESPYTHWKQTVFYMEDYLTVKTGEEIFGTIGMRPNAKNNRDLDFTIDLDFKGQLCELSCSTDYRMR
Sequence of Protein arginine N-methyltransferase 5 (O14744 whole entry): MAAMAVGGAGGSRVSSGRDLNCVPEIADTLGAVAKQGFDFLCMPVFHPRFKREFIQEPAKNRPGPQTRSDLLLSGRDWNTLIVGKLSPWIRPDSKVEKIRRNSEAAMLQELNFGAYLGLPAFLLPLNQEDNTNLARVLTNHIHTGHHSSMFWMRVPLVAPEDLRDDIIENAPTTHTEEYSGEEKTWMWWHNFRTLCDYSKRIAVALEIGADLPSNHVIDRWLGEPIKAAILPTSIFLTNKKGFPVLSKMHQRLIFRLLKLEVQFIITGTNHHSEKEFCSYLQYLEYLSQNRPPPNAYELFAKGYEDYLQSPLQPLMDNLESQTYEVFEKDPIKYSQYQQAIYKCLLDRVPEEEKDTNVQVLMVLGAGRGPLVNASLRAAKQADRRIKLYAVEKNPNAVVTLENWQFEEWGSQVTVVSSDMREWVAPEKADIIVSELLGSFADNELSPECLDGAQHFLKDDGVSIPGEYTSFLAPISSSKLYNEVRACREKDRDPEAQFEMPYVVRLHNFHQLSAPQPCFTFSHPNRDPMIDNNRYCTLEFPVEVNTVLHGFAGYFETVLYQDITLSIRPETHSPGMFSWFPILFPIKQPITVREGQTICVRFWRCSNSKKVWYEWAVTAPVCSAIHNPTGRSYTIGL
Sequence of Epidermal growth factor receptor (P00533 whole entry, the tested form may be a part): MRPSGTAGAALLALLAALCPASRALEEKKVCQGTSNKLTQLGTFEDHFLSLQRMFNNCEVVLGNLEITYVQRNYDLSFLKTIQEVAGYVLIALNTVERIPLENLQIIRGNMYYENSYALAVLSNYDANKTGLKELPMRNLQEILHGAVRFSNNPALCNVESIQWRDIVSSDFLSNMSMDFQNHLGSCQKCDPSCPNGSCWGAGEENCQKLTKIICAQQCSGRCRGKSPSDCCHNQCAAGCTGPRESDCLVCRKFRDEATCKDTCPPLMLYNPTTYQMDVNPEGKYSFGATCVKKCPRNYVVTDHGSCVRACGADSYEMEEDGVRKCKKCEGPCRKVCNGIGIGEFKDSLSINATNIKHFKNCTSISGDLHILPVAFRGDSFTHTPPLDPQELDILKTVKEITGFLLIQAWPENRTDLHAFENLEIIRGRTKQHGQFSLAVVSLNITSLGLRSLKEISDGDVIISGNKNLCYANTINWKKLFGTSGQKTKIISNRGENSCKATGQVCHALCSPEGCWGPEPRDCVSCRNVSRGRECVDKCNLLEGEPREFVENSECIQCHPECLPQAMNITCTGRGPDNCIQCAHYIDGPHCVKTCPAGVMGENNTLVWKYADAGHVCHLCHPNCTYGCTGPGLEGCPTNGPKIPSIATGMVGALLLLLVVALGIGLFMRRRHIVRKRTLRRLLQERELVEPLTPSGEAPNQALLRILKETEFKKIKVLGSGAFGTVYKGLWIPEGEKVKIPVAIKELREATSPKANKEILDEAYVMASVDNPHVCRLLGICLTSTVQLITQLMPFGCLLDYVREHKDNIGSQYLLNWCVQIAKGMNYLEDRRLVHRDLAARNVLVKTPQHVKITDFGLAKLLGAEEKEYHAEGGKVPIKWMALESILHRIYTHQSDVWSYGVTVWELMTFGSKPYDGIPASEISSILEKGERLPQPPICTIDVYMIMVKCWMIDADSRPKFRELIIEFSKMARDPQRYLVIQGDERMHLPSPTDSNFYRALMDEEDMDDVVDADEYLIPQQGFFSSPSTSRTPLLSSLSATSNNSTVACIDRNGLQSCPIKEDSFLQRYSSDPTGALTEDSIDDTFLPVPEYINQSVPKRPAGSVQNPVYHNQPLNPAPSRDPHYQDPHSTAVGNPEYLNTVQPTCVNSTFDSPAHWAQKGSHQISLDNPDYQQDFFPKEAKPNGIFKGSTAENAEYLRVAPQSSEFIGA

COC(=O)c1ccc(COc2ccc(C3NCCc4c3[nH]c3ccccc43)cc2OC)cc1 (stereo unspecified)
IC50 (A549): 18.7 µM
IC50 [1]: > 100 µM
IC50 [2]: 52 µM
IC50 [3]: 21.3 µM
IC50 (MCF7): 13.7 µM
remaining at 0.5 h [4]: 5.2%
IC50 (HepG2): > 50 µM
remaining at 0.5 h [5]: 10.3%
IC50 (HeLa): 13.4 µM
IC50 [6]: > 100 µM
IC50 (MDA-MB-231): > 50 µM
